# According to patent US9149038B2, “4-amino-6-(heterocyclic)picolinates and 6-amino-2-(heterocyclic)pyrimidine-4-carboxylates and their use as herbicides” (Dow AgroSciences LLC, priority 2013, dated 2015):
# Where two headings read alike, the source gives them in different places.
# System: Wheat and Barley and weed species
# Test: Post-Emergent Test III: postemergent herbicidal activity in wheat and barley, visual rating after 21 d and probit GR20/GR50/GR80/GR90 (Tables 9-13)
# Type: in vivo
# Settings: for GR50 ALOMY / GR50 APESV / GR50 KCHSC / GR50 LOLSS / GR50 SETVI: growth reduction of 50%; for GR50 ALOMY / GR80 ALOMY / GR90 ALOMY / GR50 APESV / GR80 APESV / GR90 APESV / GR20 HORVS / GR50 KCHSC / GR80 KCHSC / GR90 KCHSC / GR50 LOLSS / GR80 LOLSS / GR90 LOLSS / GR50 SETVI / GR80 SETVI / GR90 SETVI / GR20 TRZAS: probit analysis; for GR80 ALOMY / GR80 APESV / GR80 KCHSC / GR80 LOLSS / GR80 SETVI: growth reduction of 80%; for GR90 ALOMY / GR90 APESV / GR90 KCHSC / GR90 LOLSS / GR90 SETVI: growth reduction of 90%; for GR20 HORVS / GR20 TRZAS: growth reduction of 20%; for pest or weed control at 35 g/ha / pest or weed control at 70 g/ha / pest or weed control at 140 g/ha: post-emergence, 504 h; for Visual Growth Reduction (%) 21 Days After Application KCHSC / GR50 KCHSC / GR80 KCHSC / GR90 KCHSC: KCHSC kochia (Kochia scoparia)
# Procedure, shortened: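 Greenhouse plants (~18/17 °C, 14 h photoperiod) at second–third true leaf stage sprayed at 187 L/ha with a high rate and ½× to 1/16× serial dilutions. Visual injury 0–100% versus solvent-blank controls scored at 21 d; GR20, GR50, GR80 and GR90 derived by probit analysis across rates.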
# [1] = ALOMY black-grass (Alopecurus myosuroides)
# [2] = APESV bentgrass (Apera spica-venti)
# [3] = Hordeum vulgare, HORVS barley, spring (crop), 35 g ai/ha, read-out: Visual Growth Reduction (%) 21 Days After Application HORVS
# [4] = Hordeum vulgare, HORVS barley, spring (crop), 70 g ai/ha, read-out: Visual Growth Reduction (%) 21 Days After Application HORVS
# [5] = Hordeum vulgare, HORVS barley, spring (crop), 140 g ai/ha, read-out: Visual Growth Reduction (%) 21 Days After Application HORVS
# [6] = SETVI green foxtail (Setaria viridis)
# [7] = Triticum aestivum, TRZAS wheat, spring (crop), 35 g ai/ha, read-out: Visual Growth Reduction (%) 21 Days After Application TRZAS
# [8] = Triticum aestivum, TRZAS wheat, spring (crop), 70 g ai/ha, read-out: Visual Growth Reduction (%) 21 Days After Application TRZAS
# [9] = Triticum aestivum, TRZAS wheat, spring (crop), 140 g ai/ha, read-out: Visual Growth Reduction (%) 21 Days After Application TRZAS
# [10] = ALOMY black-grass (Alopecurus myosuroides), 35 g ai/ha, read-out: Visual Growth Reduction (%) 21 Days After Application ALOMY
# [11] = ALOMY black-grass (Alopecurus myosuroides), 70 g ai/ha, read-out: Visual Growth Reduction (%) 21 Days After Application ALOMY
# [12] = ALOMY black-grass (Alopecurus myosuroides), 140 g ai/ha, read-out: Visual Growth Reduction (%) 21 Days After Application ALOMY
# [13] = APESV bentgrass (Apera spica-venti), 35 g ai/ha, read-out: Visual Growth Reduction (%) 21 Days After Application APESV
# [14] = APESV bentgrass (Apera spica-venti), 70 g ai/ha, read-out: Visual Growth Reduction (%) 21 Days After Application APESV
# [15] = APESV bentgrass (Apera spica-venti), 140 g ai/ha, read-out: Visual Growth Reduction (%) 21 Days After Application APESV
# [16] = LOLSS ryegrass, 35 g ai/ha, read-out: Visual Growth Reduction (%) 21 Days After Application LOLSS
# [17] = LOLSS ryegrass, 70 g ai/ha, read-out: Visual Growth Reduction (%) 21 Days After Application LOLSS
# [18] = LOLSS ryegrass, 140 g ai/ha, read-out: Visual Growth Reduction (%) 21 Days After Application LOLSS
# [19] = SETVI green foxtail (Setaria viridis), 35 g ai/ha, read-out: Visual Growth Reduction (%) 21 Days After Application SETVI
# [20] = SETVI green foxtail (Setaria viridis), 70 g ai/ha, read-out: Visual Growth Reduction (%) 21 Days After Application SETVI
# [21] = SETVI green foxtail (Setaria viridis), 140 g ai/ha, read-out: Visual Growth Reduction (%) 21 Days After Application SETVI
SMILES,GR50 ALOMY [1],GR80 ALOMY [1],GR90 ALOMY [1],GR50 APESV [2],GR80 APESV [2],GR90 APESV [2],"GR20 HORVS (HORVS barley, spring (crop))",pest or weed control at 35 g/ha [3],pest or weed control at 70 g/ha [4],pest or weed control at 140 g/ha [5],Visual Growth Reduction (%) 21 Days After Application KCHSC (35 g ai/ha),Visual Growth Reduction (%) 21 Days After Application KCHSC (70 g ai/ha),Visual Growth Reduction (%) 21 Days After Application KCHSC (140 g ai/ha),GR50 KCHSC,GR80 KCHSC,GR90 KCHSC,GR50 LOLSS (LOLSS ryegrass),GR80 LOLSS (LOLSS ryegrass),GR90 LOLSS (LOLSS ryegrass),GR50 SETVI [6],further results
Nc1cc(-c2cc3c(cc2F)OC(F)(F)O3)nc(C(=O)O)c1Cl [Compound 42],11 g ai/ha,25 g ai/ha,40 g ai/ha,22 g ai/ha,81 g ai/ha,>140 g ai/ha,0.50 g ai/ha,75 to 84%,85 to 94%,85 to 94%,E (45-59),E (45-59),D (60-74),54 g ai/ha,>140 g ai/ha,>140 g ai/ha,44 g ai/ha,>140 g ai/ha,>140 g ai/ha,10 g ai/ha,"GR80 SETVI [6]: 46 g ai/ha; GR90 SETVI [6]: >140 g ai/ha; GR20 TRZAS (TRZAS wheat, spring (crop)): 0.20 g ai/ha; pest or weed control at 35 g/ha [7]: 75 to 84%; pest or weed control at 70 g/ha [8]: 75 to 84%; pest or weed control at 140 g/ha [9]: 85 to 94%; pest or weed control at 35 g/ha [10]: 85 to 94%; pest or weed control at 70 g/ha [11]: 95 to 100%; pest or weed control at 140 g/ha [12]: 95 to 100%; pest or weed control at 35 g/ha [13]: 60 to 74%; pest or weed control at 70 g/ha [14]: 75 to 84%; pest or weed control at 140 g/ha [15]: 85 to 94%; pest or weed control at 35 g/ha [16]: 45 to 59%; pest or weed control at 70 g/ha [17]: 60 to 74%; pest or weed control at 140 g/ha [18]: 60 to 74%; pest or weed control at 35 g/ha [19]: 75 to 84%; pest or weed control at 70 g/ha [20]: 85 to 94%; pest or weed control at 140 g/ha [21]: 95 to 100%"
COC(=O)c1nc(-c2c(F)cc3c(c2F)OC(F)(F)O3)cc(N)c1Cl [Compound 46],18 g ai/ha,35 g ai/ha,49 g ai/ha,88 g ai/ha,>140 g ai/ha,>140 g ai/ha,8 g ai/ha,45 to 59%,60 to 74%,85 to 94%,B (85-94),A (95-100),A (95-100),1 g ai/ha,7 g ai/ha,17 g ai/ha,91 g ai/ha,>140 g ai/ha,>140 g ai/ha,106 g ai/ha,"GR80 SETVI [6]: >140 g ai/ha; GR90 SETVI [6]: >140 g ai/ha; GR20 TRZAS (TRZAS wheat, spring (crop)): 10 g ai/ha; pest or weed control at 35 g/ha [7]: 60 to 74%; pest or weed control at 70 g/ha [8]: 75 to 84%; pest or weed control at 140 g/ha [9]: 85 to 94%; pest or weed control at 35 g/ha [10]: 60 to 74%; pest or weed control at 70 g/ha [11]: 95 to 100%; pest or weed control at 140 g/ha [12]: 95 to 100%; pest or weed control at 35 g/ha [13]: 0 to 29%; pest or weed control at 70 g/ha [14]: 45 to 59%; pest or weed control at 140 g/ha [15]: 60 to 74%; pest or weed control at 35 g/ha [16]: 0 to 29%; pest or weed control at 70 g/ha [17]: 45 to 59%; pest or weed control at 140 g/ha [18]: 60 to 74%; pest or weed control at 35 g/ha [19]: 0 to 29%; pest or weed control at 70 g/ha [20]: 30 to 44%; pest or weed control at 140 g/ha [21]: 60 to 74%"
